Measured values reported in patent publication US9682940B2, “Indazole derivatives useful as CB-1 inverse agonists” (Janssen Pharmaceutica NV, priority 2015, dated 2017).

Experiments:
[1] = target: Human CB1R (Cannabanoid receptor 1) (Homo sapiens (Human), UniProt P21554); test: CB-1 in vitro cAMP (HTRF) assay in HEK-293 cells; type: cell-based; conditions: HEK-293 cells stably transfected with human CB1R, 250 nM Forskolin, mean where tested more than once, read-out: CB-1 (HEK_cAMP) EC50
Source text: (§1) CB1 and CB2 receptors are Gi-coupled GPCR. Activation of CB1 and CB2 receptors results in a decrease in cAMP production. An inverse agonist of the CB1 or CB2 receptor results in the opposite effect, an increase of cAMP production. The principle of this assay is based on HTRF® technology (Homogeneous Time-Resolved Fluorescence). The method is a competitive immunoassay between native cAMP produced by cells and the cAMP labeled with the fluorophore d2. The tracer binding is quantified by a Mab anti-cAMP labeled with Eu3+TBP-NHS Cryptate (supplied as part of the assay kit). The specific signal (i.e. energy transfer) is inversely proportional to the concentration of cAMP in the standard or sample.
(§2) Human CB1R (Cannabanoid receptor 1) was stably transfected in HEK-293 cells (DiscoveRx, cat: 93-0200C1). Human CB2R (Cannabanoid receptor 2) was stably transfected in HEK-293 cells (DiscoveRx, cat: 93-0201C1). Cell cultures were maintained in media: DMEM (Invitrogen Cat#12430-054) supplemented with 10% HI FBS (Invitrogen Cat#16140-071), 1% L-glutamine (Invitrogen Cat#25030-081), 0.2 mg/ml Hygromycin B (Invitrogen Cat#10687-010), 600 μg/mL G418 (Invitrogen Cat#10131-035), and 1× Penn/Strep (Invitrogen 15140-122). After cell expansion, aliquots were cryo-stored in media containing 5% DMSO (Pierce Cat#20684).
(§3) One day prior to experiments media was warmed to 37° C. and the cryo-stored cells were thawed in a 37° C. water bath. The cells were then added to media (10× volume) and the mixture was centrifugated at 1000 RPM for 5 min. The supernate was removed and the cells were re-suspended in media. A sample of the cell suspension was evaluated on a Cedex XS automated cell counter (Innovatis Systems) to determine viable cells/ml. Additional media was added to the cells to achieve a final cell density of 4E5 cells/mL. The cells were then plated into 384 well PDL white solid bottom plates (Greiner, Cat#781945) at 20 μL per well using a Multidrop (Thermo Scientific). Cells were removed from Row P (location of cAMP standards). Two columns of cells were plated into a clear bottom 384 well PDL coated plate (Greiner, Cat#781944) to view confluence the day of the assay. The cell plates were lidded and stored for 15 minutes in a hood, then transferred to an incubator (37° C., 5% CO2, 95% humidity) overnight.
(§4) DMSO was added to all wells of 384 well V bottom polystyrene plate (Greiner, Cat#781280) except to columns 1 and 13, rows O and P and wells M13-M23 and N13-N23. Test compounds (60 μL, 10 mM) were added to Column 1 and 13 (A1 through N1 and A13 through L13). Test compounds were serially diluted 1/3 by transferring and mixing 20 μl sample with 40 μL DMSO.
(§5) DMSO (40 μL) was added to wells of 384 well V bottom polystyrene plate: O2 through O11, M14 through M23, N14 through N23, and O14 through 023. AM630 (also known as [6-iodo-2-methyl-1-[2-(4-morpholinyl)ethyl]-1H-indol-3-yl](4-methoxyphenyl)-methanone, Cayman Chemical, Cat#10006974) (60 μL, 10 mM) was added to 01; and 1-(2,4-dichlorophenyl)-7-[(4-fluorophenyl)methylene]-4,5,6,7-tetrahydro-N-1-piperidinyl-1H-indazole-3-carboxamide (60 μL, 10 mM) was added to N13. The control was serially diluted 1/3 by transferring and mixing 20 μl sample with 40 μL DMSO. This process resulted 11 doses per control, 10 mM to […].
(§6) Cells plated the day prior to the assay in clear bottom plates were viewed on an inverse microscope to ensure confluency in the range of 60-75%. […]

[2] = target: Human CB2R (Cannabanoid receptor 2) (Homo sapiens (Human), UniProt P34972); test: CB-2 in vitro cAMP (HTRF) assay in HEK-293 cells; type: cell-based; conditions: HEK-293 cells stably transfected with human CB2R, 250 nM Forskolin, mean where tested more than once, read-out: CB-2 (HEK_cAMP) EC50
Source text: as §1, §2, §3, §4, §5, §6

Human CB1R (Cannabanoid receptor 1), sequence (P21554 whole entry): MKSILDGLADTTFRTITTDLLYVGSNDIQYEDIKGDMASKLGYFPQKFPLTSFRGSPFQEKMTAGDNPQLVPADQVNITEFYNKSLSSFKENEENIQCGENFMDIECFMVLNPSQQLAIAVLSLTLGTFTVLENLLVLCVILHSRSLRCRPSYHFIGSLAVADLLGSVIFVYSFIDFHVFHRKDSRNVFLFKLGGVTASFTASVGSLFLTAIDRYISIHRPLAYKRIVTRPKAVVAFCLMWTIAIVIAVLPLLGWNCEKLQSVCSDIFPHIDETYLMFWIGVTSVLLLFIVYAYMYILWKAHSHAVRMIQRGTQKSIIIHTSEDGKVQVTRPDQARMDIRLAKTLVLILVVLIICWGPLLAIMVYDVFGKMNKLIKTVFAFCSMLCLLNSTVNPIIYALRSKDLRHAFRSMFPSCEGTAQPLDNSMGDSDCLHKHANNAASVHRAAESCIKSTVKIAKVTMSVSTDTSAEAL
Human CB2R (Cannabanoid receptor 2), sequence (P34972 whole entry): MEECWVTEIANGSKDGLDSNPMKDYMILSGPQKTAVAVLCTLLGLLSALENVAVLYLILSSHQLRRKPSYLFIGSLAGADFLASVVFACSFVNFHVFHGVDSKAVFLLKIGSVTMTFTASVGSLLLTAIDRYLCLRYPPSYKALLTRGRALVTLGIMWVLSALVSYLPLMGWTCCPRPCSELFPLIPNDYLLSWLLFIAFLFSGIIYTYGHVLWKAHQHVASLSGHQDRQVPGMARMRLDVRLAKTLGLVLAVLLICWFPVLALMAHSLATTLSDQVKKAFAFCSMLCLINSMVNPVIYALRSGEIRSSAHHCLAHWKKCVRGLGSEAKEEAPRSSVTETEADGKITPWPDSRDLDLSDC

Compound	EC50 [1] [nM]	EC50 [2] [nM]
Cn1nc(C2CCN(S(=O)(=O)c3ccc(C(=O)O)cc3)CC2)c2cc(C(c3ccc(Cl)cc3)c3ccc(Cl)cc3)ccc21 [Compound 62]	845	> 10000
Cn1nc(C2CCN(S(=O)(=O)c3cccc(C(=O)O)c3)CC2)c2cc(C(c3ccc(Cl)cc3)c3ccc(Cl)cc3)ccc21 [Compound 63]	66	> 10000
Cn1nc(C2CCN(S(=O)(=O)c3ccc(C(N)=O)cc3)CC2)c2cc(C(c3ccc(Cl)cc3)c3ccc(Cl)cc3)ccc21 [Compound 64]	24	> 10000
NC(=O)c1cccc(S(=O)(=O)N2CCC(c3n[nH]c4ccc(C(c5ccc(Cl)cc5)c5ccc(Cl)cc5)cc34)CC2)c1 [Compound 65]	25	> 10000
NC(=O)c1cccc(S(=O)(=O)N2CCC(c3n[nH]c4ccc(C(c5ccc(Cl)cc5)c5ccc(Cl)cc5)cc34)CC2)c1 [Compound 66]	160	> 10000
COc1ccc(C(c2ccc(OC)cc2)c2ccc3[nH]nc(C4CCN(S(=O)(=O)C(F)(F)F)CC4)c3c2)cc1 [Compound 67]	2	5200
O=C(O)c1cccc(S(=O)(=O)N2CCC(c3nn(CCO)c4ccc(C(c5ccc(Cl)cc5)c5ccc(Cl)cc5)cc34)CC2)c1 [Compound 68]	85	> 10000
NC(=O)c1ccc(S(=O)(=O)N2CCC(c3nn(CCO)c4ccc(C(c5ccc(Cl)cc5)c5ccc(Cl)cc5)cc34)CC2)cc1 [Compound 69]	26	> 10000
NC(=O)c1ccccc1S(=O)(=O)N1CCC(c2nn(CCO)c3ccc(C(c4ccc(Cl)cc4)c4ccc(Cl)cc4)cc23)CC1 [Compound 70]	428	> 10000
NS(=O)(=O)c1cccc(C(=O)N2CCC(c3nn(CCO)c4ccc(C(c5ccc(Cl)cc5)c5ccc(Cl)cc5)cc34)CC2)c1 [Compound 71]	68	> 10000
NS(=O)(=O)c1ccc(C(=O)N2CCC(c3nn(CCO)c4ccc(C(c5ccc(Cl)cc5)c5ccc(Cl)cc5)cc34)CC2)cc1 [Compound 72]	39	> 10000
O=C(O)Cn1nc(C2CCN(S(=O)(=O)C(F)(F)F)CC2)c2cc(C(c3ccc(Cl)cc3)c3ccc(Cl)cc3)ccc21 [Compound 73]	762	> 10000
CC(C)(C)OC(=O)N1CCC(Nc2n[nH]c3ccc(C(c4ccc(Cl)cc4)c4ccc(Cl)cc4)cc23)CC1 [Compound 74]	162	> 10000
CCOC(=O)Cn1nc(C2CCN(S(=O)(=O)C(F)(F)F)CC2)c2cc(C(c3ccc(Cl)cc3)c3ccc(Cl)cc3)ccc21 [Compound 75]	3920	> 10000
CC(C)(C)OC(=O)N1CCC(c2nn(CCO)c3ccc(C(c4ccc(Cl)cc4)c4ccc(Cl)cc4)cc23)CC1 [Compound 76]	112	> 10000
O=S(=O)(N1CCC(Nc2n[nH]c3ccc(C(c4ccc(Cl)cc4)c4ccc(Cl)cc4)cc23)CC1)C(F)(F)F [Compound 77]	60	> 10000
CC(C)S(=O)(=O)N1CCC(Nc2n[nH]c3ccc(C(c4ccc(Cl)cc4)c4ccc(Cl)cc4)cc23)CC1 [Compound 78]	179	> 10000
O=S(=O)(N1CCC(c2nn(CCO)c3ccc(C(c4ccc(Cl)cc4)c4ccc(Cl)cc4)cc23)CC1)C(F)(F)F [Compound 79]	14	> 10000
O=C(O)c1ccc(S(=O)(=O)N2CCC(c3nn(CCO)c4ccc(C(c5ccc(Cl)cc5)c5ccc(Cl)cc5)cc34)CC2)cc1 [Compound 80]	374	> 10000
O=S(=O)(C(F)F)N1CCC(c2n[nH]c3ccc(C(c4ccc(Cl)cc4)c4ccc(Cl)cc4)cc23)CC1 [Compound 81]	7320	> 10000

Compound	EC50 [1] [nM]	EC50 [2] [nM]
NC(=O)c1cccc(S(=O)(=O)N2CCC(c3nn(CCO)c4ccc(C(c5ccc(Cl)cc5)c5ccc(Cl)cc5)cc34)CC2)c1 [Compound 82]	82	> 10000
O=C(O)CCS(=O)(=O)N1CCC(c2nn(CCO)c3ccc(C(c4ccc(Cl)cc4)c4ccc(Cl)cc4)cc23)CC1 [Compound 83]	1570	> 10000
O=C(O)c1ccccc1S(=O)(=O)N1CCC(c2nn(C3CC3)c3ccc(C(c4ccc(Cl)cc4)c4ccc(Cl)cc4)cc23)CC1 [Compound 87]	6740	> 10000
O=C(O)c1cccc(S(=O)(=O)N2CCC(c3nn(C4CC4)c4ccc(C(c5ccc(Cl)cc5)c5ccc(Cl)cc5)cc34)CC2)c1 [Compound 88]	115	> 10000
O=C(O)c1ccc(S(=O)(=O)N2CCC(c3nn(C4CC4)c4ccc(C(c5ccc(Cl)cc5)c5ccc(Cl)cc5)cc34)CC2)cc1 [Compound 89]	339	> 10000
NC(=O)CC(=O)N1CCC(c2nn(C3CC3)c3ccc(C(c4ccc(Cl)cc4)c4ccc(Cl)cc4)cc23)CC1 [Compound 90]	716	3100
O=C(CO)N1CCC(c2nn(C3CC3)c3ccc(C(c4ccc(Cl)cc4)c4ccc(Cl)cc4)cc23)CC1 [Compound 91]	39	> 10000
NC(=O)CCC(=O)N1CCC(c2nn(C3CC3)c3ccc(C(c4ccc(Cl)cc4)c4ccc(Cl)cc4)cc23)CC1 [Compound 92]	29	> 10000
NC(=O)c1ccccc1S(=O)(=O)N1CCC(c2nn(C3CC3)c3ccc(C(c4ccc(Cl)cc4)c4ccc(Cl)cc4)cc23)CC1 [Compound 93]	533	> 10000
NC(=O)c1cccc(S(=O)(=O)N2CCC(c3nn(C4CC4)c4ccc(C(c5ccc(Cl)cc5)c5ccc(Cl)cc5)cc34)CC2)c1 [Compound 94]	65	> 10000
NC(=O)c1ccc(S(=O)(=O)N2CCC(c3nn(C4CC4)c4ccc(C(c5ccc(Cl)cc5)c5ccc(Cl)cc5)cc34)CC2)cc1 [Compound 95]	63	6500
NC(=O)c1ccccc1C(=O)N1CCC(c2nn(C3CC3)c3ccc(C(c4ccc(Cl)cc4)c4ccc(Cl)cc4)cc23)CC1 [Compound 96]	2240	> 10000
O=C(O)c1cccc(C(=O)N2CCC(c3nn(C4CC4)c4ccc(C(c5ccc(Cl)cc5)c5ccc(Cl)cc5)cc34)CC2)c1 [Compound 97]	478	> 10000
NC(=O)c1cccc(C(=O)N2CCC(c3nn(C4CC4)c4ccc(C(c5ccc(Cl)cc5)c5ccc(Cl)cc5)cc34)CC2)c1 [Compound 98]	64	> 10000
O=C(O)c1ccc(C(=O)N2CCC(c3nn(C4CC4)c4ccc(C(c5ccc(Cl)cc5)c5ccc(Cl)cc5)cc34)CC2)cc1 [Compound 99]	345	> 10000
COc1ccccc1S(=O)(=O)N1CCC(Nc2n[nH]c3ccc(C(c4ccc(Cl)cc4)c4ccc(Cl)cc4)cc23)CC1 [Compound 100]	428	> 10000
COc1cccc(S(=O)(=O)N2CCC(Nc3n[nH]c4ccc(C(c5ccc(Cl)cc5)c5ccc(Cl)cc5)cc34)CC2)c1 [Compound 101]	293	> 10000
O=C(O)CC(=O)N1CCC(c2nn(C3CC3)c3ccc(C(c4ccc(Cl)cc4)c4ccc(Cl)cc4)cc23)CC1 [Compound 102]	477	> 10000
O=C(O)c1ccccc1C(=O)N1CCC(c2nn(C3CC3)c3ccc(C(c4ccc(Cl)cc4)c4ccc(Cl)cc4)cc23)CC1 [Compound 103]	6010	> 10000
